This note sets out measurements from PMC2950902 (Molecular Microbiology, 2010).

Test [1] deals with T1, P1 ParA (Escherichia coli, UniProt P07620).
T1 sequence (P07620 1-398): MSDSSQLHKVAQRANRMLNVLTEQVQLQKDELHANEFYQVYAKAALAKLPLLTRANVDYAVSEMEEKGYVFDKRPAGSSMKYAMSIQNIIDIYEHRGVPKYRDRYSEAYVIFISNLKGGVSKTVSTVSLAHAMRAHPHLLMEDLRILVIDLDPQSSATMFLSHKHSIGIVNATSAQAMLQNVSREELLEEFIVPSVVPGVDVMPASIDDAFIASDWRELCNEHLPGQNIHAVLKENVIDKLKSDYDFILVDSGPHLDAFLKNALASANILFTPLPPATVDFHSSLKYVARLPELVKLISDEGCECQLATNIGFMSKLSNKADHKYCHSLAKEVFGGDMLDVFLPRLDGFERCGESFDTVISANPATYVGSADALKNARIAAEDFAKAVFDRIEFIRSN
The test is described as follows: MANT-nucleotide fluorescence. The format is binding. The following applies: unlabelled ADP.

Test [2] has as its target T1, P1 ParA. Nature of the test: tryptophan fluorescence change. The class given is binding. The conditions noted are these: 1 mM nucleotide, Mg2+, 23°C.

With `Nc1ncnc2c1ncn2[C@@H]1O[C@H](COP(=O)(O)OP(=O)(O)O)[C@@H](O)[C@H]1O` [ADP], in test [1], the “apparent Kd” value is “MANT-ADP bound ParA with similar affinity as ADP”. Consider `Nc1ncnc2c1ncn2[C@@H]1O[C@H](COP(=O)(O)OP(=O)(O)OP(O)(O)=S)[C@@H](O)[C@H]1O` [ATPγS], for which the tryptophan fluorescence change entry in test [2] is “ADP and ATPγS induced a small but reproducible increase in fluorescence”.
